Laboratory results from patent US20240101576A1, “HETEROCYCLIC INHIBITORS OF EGFR AND/OR HER2, FOR USE IN THE TREATMENT OF CANCER” (Scorpion Therapeutics, Inc., priority 2020, published 2024).

What was measured:
Format in all cases: cell-based
[1] = biological target: T1, EGFR WT (Ba/F3 cells) (Homo sapiens, UniProt P00533); assay: Inhibitor activity on EGFR-dependent cell growth (CellTiter-Glo, 72 h), Ba/F3 EGFR WT; conditions: read-out: BaF3 WT IC50
T1 construct: expressed in transfected cells; host or cells: Ba/F3 (murine pro-B cells), retroviral transduction, puromycin selection, maintained with EGF
Outline: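 This growth assay used Ba/F3 cells that depend on wild-type EGFR and are kept in EGF without IL3. Compounds were made up as 10 mM DMSO stocks and diluted 3-fold over 10 points. 120 nL went onto 600 cells/well. After 72 hours, 40 μL CellTiter-Glo was added and luminescence read on EnVision after 30 min.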

[2] = biological target: T2, EGFR exon 20 ASV Ins V769_D770 (Ba/F3 cells) (Homo sapiens, UniProt P00533, INS769ASV); assay: Inhibitor activity on EGFR-dependent cell growth (CellTiter-Glo, 72 h), Ba/F3 EGFR exon 20 ASV Ins; conditions: read-out: BaF3 ASV IC50
T2 construct: expressed in transfected cells; host or cells: Ba/F3 (murine pro-B cells), retroviral transduction, puromycin selection, IL3-independent pool
Outline: (§1)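 IC50s derive from a sigmoidal dose–response fit of CellTiter-Glo signal. The signal was normalised between […]-treated cells and cell-free medium. Ba/F3 mutant-EGFR cells, seeded at 400–800/well depending on the line, had 72 h of exposure to a 10-point, 3-fold compound series.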

[3] = biological target: T3, EGFR exon 20 SVD Ins D770_N771 (Ba/F3 cells) (Homo sapiens, UniProt P00533, INS770SVD); assay: Inhibitor activity on EGFR-dependent cell growth (CellTiter-Glo, 72 h), Ba/F3 EGFR exon 20 SVD Ins; conditions: read-out: BaF3 SVD IC50
T3 construct: expressed in transfected cells; host or cells: Ba/F3 (murine pro-B cells), retroviral transduction, puromycin selection, IL3-independent pool
Outline: as §1

[4] = biological target: T4, EGFR exon 20 FQEA Ins A763_V764 (Ba/F3 cells) (Homo sapiens, UniProt P00533, INS763FQEA); assay: Inhibitor activity on EGFR-dependent cell growth (CellTiter-Glo, 72 h), Ba/F3 EGFR exon 20 FQEA Ins; conditions: read-out: BaF3 FQEA IC50
T4 construct: expressed in transfected cells; host or cells: Ba/F3 (murine pro-B cells), retroviral transduction, puromycin selection, IL3-independent pool
Outline: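 72 h proliferation, Ba/F3 EGFR mutants (no IL3, puromycin-selected pools, EGFR confirmed by Western blot). Seeding of 400 L858R, 600 L858R/C797S and 800 exon 19del/FQEA cells per well. CellTiter-Glo used; controls were […] (high) and medium alone (low).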

T2 sequence (P00533 with tags, fused parts or gaps INS769ASV): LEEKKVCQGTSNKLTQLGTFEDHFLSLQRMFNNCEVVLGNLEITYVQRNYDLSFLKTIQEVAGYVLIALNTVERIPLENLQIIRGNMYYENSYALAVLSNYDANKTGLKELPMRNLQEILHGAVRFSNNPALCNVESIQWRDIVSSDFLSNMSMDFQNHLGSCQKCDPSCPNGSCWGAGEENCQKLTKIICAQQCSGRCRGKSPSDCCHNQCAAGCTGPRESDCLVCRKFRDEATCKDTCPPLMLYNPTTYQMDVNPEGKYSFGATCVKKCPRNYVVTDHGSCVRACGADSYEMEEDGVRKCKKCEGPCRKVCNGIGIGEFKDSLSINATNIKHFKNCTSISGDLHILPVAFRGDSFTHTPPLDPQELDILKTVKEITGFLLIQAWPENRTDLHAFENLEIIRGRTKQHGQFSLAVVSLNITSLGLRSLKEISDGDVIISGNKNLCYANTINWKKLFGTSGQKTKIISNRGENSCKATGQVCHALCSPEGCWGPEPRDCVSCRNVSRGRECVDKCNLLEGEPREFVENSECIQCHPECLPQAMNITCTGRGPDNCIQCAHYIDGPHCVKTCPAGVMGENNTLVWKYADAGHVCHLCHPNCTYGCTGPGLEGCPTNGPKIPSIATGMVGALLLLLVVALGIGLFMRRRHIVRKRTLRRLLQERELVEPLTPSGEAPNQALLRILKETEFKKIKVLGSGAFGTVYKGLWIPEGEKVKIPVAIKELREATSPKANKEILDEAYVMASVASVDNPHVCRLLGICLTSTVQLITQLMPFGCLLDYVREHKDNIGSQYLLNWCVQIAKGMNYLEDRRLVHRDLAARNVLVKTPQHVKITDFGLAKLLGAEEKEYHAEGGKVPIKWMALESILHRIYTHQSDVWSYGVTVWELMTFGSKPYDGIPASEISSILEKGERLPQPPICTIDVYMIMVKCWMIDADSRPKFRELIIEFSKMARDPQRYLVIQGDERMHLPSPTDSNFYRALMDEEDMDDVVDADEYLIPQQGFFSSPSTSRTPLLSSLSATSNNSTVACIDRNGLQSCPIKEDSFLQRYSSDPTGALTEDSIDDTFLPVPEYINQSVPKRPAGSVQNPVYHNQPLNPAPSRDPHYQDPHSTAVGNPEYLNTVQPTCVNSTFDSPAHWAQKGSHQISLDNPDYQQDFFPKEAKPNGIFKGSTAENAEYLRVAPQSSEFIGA
T3 sequence (P00533 with tags, fused parts or gaps INS770SVD): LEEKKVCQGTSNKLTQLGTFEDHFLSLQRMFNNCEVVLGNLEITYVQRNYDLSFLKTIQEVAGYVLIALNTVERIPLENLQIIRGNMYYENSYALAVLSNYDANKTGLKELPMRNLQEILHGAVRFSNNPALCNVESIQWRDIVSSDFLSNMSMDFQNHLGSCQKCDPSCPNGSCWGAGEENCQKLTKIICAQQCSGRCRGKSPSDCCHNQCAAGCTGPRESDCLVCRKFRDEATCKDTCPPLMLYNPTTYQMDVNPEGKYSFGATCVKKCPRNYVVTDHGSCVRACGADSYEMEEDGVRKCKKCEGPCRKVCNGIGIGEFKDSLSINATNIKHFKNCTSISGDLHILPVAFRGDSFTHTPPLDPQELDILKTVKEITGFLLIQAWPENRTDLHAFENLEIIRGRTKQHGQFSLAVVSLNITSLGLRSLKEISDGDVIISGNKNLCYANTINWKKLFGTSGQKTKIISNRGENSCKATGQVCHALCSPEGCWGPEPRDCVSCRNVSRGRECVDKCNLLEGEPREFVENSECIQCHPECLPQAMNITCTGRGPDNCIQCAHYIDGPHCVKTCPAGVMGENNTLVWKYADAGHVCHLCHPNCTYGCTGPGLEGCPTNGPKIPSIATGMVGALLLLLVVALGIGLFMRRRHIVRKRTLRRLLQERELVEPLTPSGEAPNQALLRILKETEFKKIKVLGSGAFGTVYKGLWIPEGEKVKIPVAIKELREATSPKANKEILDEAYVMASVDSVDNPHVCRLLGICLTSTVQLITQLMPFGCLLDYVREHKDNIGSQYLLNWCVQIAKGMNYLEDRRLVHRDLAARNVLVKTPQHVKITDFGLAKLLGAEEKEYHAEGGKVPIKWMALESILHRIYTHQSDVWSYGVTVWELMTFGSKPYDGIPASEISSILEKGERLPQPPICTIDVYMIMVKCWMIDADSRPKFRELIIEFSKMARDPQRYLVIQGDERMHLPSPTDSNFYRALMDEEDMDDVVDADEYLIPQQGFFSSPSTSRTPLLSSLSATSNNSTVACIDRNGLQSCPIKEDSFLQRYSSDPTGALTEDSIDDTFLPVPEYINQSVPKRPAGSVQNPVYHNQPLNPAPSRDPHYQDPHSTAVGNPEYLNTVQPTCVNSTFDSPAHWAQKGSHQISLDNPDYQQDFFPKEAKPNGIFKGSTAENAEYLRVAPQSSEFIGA
T4 sequence (P00533 with tags, fused parts or gaps INS763FQEA): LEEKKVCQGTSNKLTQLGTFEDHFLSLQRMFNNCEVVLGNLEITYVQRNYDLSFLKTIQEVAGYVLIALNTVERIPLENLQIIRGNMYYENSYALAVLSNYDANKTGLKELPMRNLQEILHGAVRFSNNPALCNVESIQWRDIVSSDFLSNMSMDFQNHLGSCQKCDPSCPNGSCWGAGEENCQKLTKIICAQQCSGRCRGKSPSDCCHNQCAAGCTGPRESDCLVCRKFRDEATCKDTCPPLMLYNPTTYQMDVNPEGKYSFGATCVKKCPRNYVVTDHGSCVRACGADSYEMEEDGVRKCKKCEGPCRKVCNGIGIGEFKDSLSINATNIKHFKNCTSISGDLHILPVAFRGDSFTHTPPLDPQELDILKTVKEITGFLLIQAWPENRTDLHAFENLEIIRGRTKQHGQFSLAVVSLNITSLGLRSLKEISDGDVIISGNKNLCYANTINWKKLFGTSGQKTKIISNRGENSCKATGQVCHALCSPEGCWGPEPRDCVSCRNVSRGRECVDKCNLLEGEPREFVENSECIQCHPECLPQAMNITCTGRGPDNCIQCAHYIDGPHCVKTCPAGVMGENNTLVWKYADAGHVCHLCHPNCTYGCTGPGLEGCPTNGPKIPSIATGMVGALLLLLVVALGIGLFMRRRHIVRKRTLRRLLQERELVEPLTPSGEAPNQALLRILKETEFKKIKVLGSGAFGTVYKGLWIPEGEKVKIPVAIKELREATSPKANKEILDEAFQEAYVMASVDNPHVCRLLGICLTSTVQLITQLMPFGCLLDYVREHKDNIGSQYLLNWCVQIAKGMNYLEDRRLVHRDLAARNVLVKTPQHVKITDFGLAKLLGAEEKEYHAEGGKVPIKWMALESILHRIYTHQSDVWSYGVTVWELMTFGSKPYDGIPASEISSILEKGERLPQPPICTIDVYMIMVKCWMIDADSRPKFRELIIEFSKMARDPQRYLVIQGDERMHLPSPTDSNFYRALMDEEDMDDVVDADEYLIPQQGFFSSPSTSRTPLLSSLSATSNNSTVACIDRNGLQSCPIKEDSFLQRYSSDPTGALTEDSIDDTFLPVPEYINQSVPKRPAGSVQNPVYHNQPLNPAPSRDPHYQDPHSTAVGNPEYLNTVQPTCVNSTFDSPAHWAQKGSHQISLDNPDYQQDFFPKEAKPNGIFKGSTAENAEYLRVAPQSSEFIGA
T1 sequence (P00533 25-1210): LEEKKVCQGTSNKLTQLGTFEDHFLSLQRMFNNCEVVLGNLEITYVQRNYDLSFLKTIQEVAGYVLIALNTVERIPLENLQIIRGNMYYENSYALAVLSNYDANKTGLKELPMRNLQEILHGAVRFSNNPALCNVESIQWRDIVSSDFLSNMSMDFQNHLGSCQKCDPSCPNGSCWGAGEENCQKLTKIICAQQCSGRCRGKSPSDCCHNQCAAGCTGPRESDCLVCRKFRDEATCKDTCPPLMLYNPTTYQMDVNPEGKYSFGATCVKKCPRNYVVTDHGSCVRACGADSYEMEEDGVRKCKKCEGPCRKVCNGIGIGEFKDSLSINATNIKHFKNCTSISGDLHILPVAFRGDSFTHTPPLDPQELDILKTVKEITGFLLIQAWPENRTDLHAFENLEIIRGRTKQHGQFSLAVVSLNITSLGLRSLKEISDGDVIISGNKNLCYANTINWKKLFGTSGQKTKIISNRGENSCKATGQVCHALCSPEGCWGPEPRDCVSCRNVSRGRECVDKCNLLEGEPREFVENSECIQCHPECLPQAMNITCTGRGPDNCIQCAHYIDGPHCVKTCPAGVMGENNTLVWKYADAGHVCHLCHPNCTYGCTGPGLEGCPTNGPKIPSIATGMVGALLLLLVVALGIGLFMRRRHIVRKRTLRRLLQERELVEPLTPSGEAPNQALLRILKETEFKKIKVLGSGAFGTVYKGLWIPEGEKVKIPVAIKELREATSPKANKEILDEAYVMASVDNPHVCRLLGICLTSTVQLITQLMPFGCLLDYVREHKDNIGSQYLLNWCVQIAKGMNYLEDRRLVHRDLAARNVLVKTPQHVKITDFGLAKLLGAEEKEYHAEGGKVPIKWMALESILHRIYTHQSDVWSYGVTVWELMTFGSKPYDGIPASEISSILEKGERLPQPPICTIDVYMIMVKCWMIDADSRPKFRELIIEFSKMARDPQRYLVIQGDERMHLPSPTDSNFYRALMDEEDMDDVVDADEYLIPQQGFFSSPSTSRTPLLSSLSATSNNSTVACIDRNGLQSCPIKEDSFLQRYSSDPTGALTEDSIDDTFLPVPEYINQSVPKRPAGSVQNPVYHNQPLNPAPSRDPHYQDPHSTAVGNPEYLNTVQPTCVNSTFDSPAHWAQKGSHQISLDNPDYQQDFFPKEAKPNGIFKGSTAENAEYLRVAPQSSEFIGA

Structure (SMILES) | IC50 [1] | IC50 [2] | IC50 [3] | IC50 [4]
COc1c(F)cccc1Nc1c(-c2ccnc3cnc(C(F)(F)F)nc23)[nH]c2c1C(=O)NCC2 [compound 417] | > 1000 nM | 100 to 1000 nM | 100 to 1000 nM | 100 to 1000 nM
COc1c(F)cccc1Nc1c(-c2ccncc2F)[nH]c2c1C(=O)NCC2 [compound 418] | > 1000 nM | 100 to 1000 nM | 100 to 1000 nM | 100 to 1000 nM
COc1c(F)cccc1Nc1c(-c2ccnc3cnc(OC4COC4)nc23)[nH]c2c1C(=O)NCC2 [compound 440] | 100 to 1000 nM | < 100 nM | < 100 nM | < 100 nM
COc1c(Cl)cccc1Nc1c(-c2ccnc(C(F)F)n2)[nH]c2c1C(=O)NCC2 [compound 472, 3-[(3-chloro-2-methoxyphenyl)amino]-2-[2-(difluoromethyl)pyrimidin-4-yl]-1H,5H,6H,7H-pyrrolo[3,2-c]pyridin-4-one] | > 1000 nM | 100 to 1000 nM | 100 to 1000 nM | > 1000 nM
COc1c(Cl)cccc1Nc1c(-c2ccncc2F)[nH]c2c1C(=O)NC[C@@H]2CCN(C)C [compound 475, (7S)-3-[(3-chloro-2-methoxyphenyl)amino]-7-[2-(dimethylamino)ethyl]-2-(3-fluoropyridin-4-yl)-1H,5H,6H,7H-pyrrolo[3,2-c]pyridin-4-one] | > 1000 nM | > 1000 nM | > 1000 nM | > 1000 nM
COc1c(Cl)cccc1Nc1c(-c2ccnc(C(F)(F)F)n2)[nH]c2c1C(=O)NCC2 [compound 476, 3-[(3-chloro-2-methoxyphenyl)amino]-2-[2-(trifluoromethyl)pyrimidin-4-yl]-1H,5H,6H,7H-pyrrolo[3,2-c]pyridin-4-one] | > 1000 nM | > 1000 nM | > 1000 nM | > 1000 nM
COc1nc2c(-c3[nH]c4c(c3Nc3cccc(Cl)c3OC)C(=O)NCC4)ccnc2cc1F [compound 477, 3-[(3-chloro-2-methoxyphenyl)amino]-2-(7-fluoro-6-methoxy-1,5-naphthyridin-4-yl)-1H,5H,6H,7H-pyrrolo[3,2-c]pyridin-4-one] | 100 to 1000 nM | < 100 nM | < 100 nM | < 100 nM
COc1c(Cl)cccc1Nc1c(-c2ccncc2F)[nH]c2c1C(=O)NC[C@H]2CCN1CCOCC1 [compound 484, (7R)-3-[(3-chloro-2-methoxyphenyl)amino]-2-(3-fluoropyridin-4-yl)-7-[2-(morpholin-4-yl)ethyl]-1H,5H,6H,7H-pyrrolo[3,2-c]pyridin-4-one] | > 1000 nM | > 1000 nM | > 1000 nM | > 1000 nM
COc1c(Cl)cccc1Nc1c(-c2ccncc2F)[nH]c2c1C(=O)NC[C@@H]2CCN1CCOCC1 [compound 485, (7S)-3-[(3-chloro-2-methoxyphenyl)amino]-2-(3-fluoropyridin-4-yl)-7-[2-(morpholin-4-yl)ethyl]-1H,5H,6H,7H-pyrrolo[3,2-c]pyridin-4-one] | > 1000 nM | > 1000 nM | > 1000 nM | > 1000 nM
COc1c(Cl)cccc1Nc1c(-c2ccncc2F)[nH]c2c1C(=O)NC[C@H]2CCN(C)C [compound 486, (7R)-3-[(3-chloro-2-methoxyphenyl)amino]-7-[2-(dimethylamino)ethyl]-2-(3-fluoropyridin-4-yl)-1H,5H,6H,7H-pyrrolo[3,2-c]pyridin-4-one] | > 1000 nM | > 1000 nM | > 1000 nM | > 1000 nM
COc1c(Cl)cccc1Nc1c(-c2ccncc2F)[nH]c2c1C(=O)NC[C@]21CCN(C(C)=O)C1 [compound 491] | > 1000 nM | > 1000 nM | > 1000 nM | > 1000 nM
COc1c(Cl)cccc1Nc1c(-c2ccncc2F)[nH]c2c1C(=O)NC[C@@]21CCN(C(C)=O)C1 [compound 492] | > 1000 nM | > 1000 nM | > 1000 nM | > 1000 nM
COc1c(Cl)cccc1Nc1c(-c2ccncc2F)[nH]c2c1C(=O)NC[C@@]21CCN(S(C)(=O)=O)C1 [compound 493] | > 1000 nM | 100 to 1000 nM | 100 to 1000 nM | 100 to 1000 nM
COc1c(Cl)cccc1Nc1c(-c2ccncc2F)[nH]c2c1C(=O)NC[C@]21CCN(S(C)(=O)=O)C1 [compound 494] | > 1000 nM | > 1000 nM | > 1000 nM | > 1000 nM
COc1c(Cl)cccc1Nc1c(-c2ccncc2F)[nH]c2c1C(=O)NC[C@H]2CC(C)(C)O [compound 495, (7R)-3-[(3-chloro-2-methoxyphenyl)amino]-2-(3-fluoropyridin-4-yl)-7-(2-hydroxy-2-methylpropyl)-1H,5H,6H,7H-pyrrolo[3,2-c]pyridin-4-one] | > 1000 nM | < 100 nM | < 100 nM | < 100 nM
COc1cc2nccc(-c3[nH]c4c(c3Nc3cccc(Cl)c3OC)C(=O)NCC4)c2nc1OCCN(C)C [compound 501, 3-[(3-chloro-2-methoxyphenyl)amino]-2-{6-[2-(dimethylamino)ethoxy]-7-methoxy-1,5-naphthyridin-4-yl}-1H,5H,6H,7H-pyrrolo[3,2-c]pyridin-4-one] | 100 to 1000 nM | < 100 nM | < 100 nM | < 100 nM
COc1c(Cl)cccc1Nc1c(-c2ccnc3ccc(OCCCN4CCOCC4)nc23)[nH]c2c1C(=O)NCC2 [compound 503, 3-[(3-chloro-2-methoxyphenyl)amino]-2-{6-[3-(morpholin-4-yl)propoxy]-1,5-naphthyridin-4-yl}-1H,5H,6H,7H-pyrrolo[3,2-c] pyridin-4-one] | 100 to 1000 nM | < 100 nM | < 100 nM | < 100 nM
COc1c(Cl)cccc1Nc1c(-c2ccnc3ccc(OCCN4CCOCC4)nc23)[nH]c2c1C(=O)NCC2 [compound 504, 3-[(3-chloro-2-methoxyphenyl)amino]-2-{6-[2-(morpholin-4-yl)ethoxy]-1,5-naphthyridin-4-yl}-1H,5H,6H,7H-pyrrolo[3,2-c] pyridin-4-one] | 100 to 1000 nM | < 100 nM | < 100 nM | 100 to 1000 nM
COc1c(Cl)cccc1Nc1c(-c2ccnc3cnc(OCCCN4CCOCC4)nc23)[nH]c2c1C(=O)NCC2 [compound 505, 3-[(3-chloro-2-methoxyphenyl)amino]-2-{2-[3-(morpholin-4-yl)propoxy]pyrido[3,2-d]pyrimidin-8-yl}-1H,5H,6H,7H-pyrrolo[3,2-c]pyridin-4-one] | > 1000 nM | < 100 nM | < 100 nM | 100 to 1000 nM
COc1c(Cl)cccc1Nc1c(-c2ccnc3cnc(OCCN4CCOCC4)nc23)[nH]c2c1C(=O)NCC2 [compound 506, 3-[(3-chloro-2-methoxyphenyl)amino]-2-{2-[2-(morpholin-4-yl)ethoxy]pyrido[3,2-d]pyrimidin-8-yl}-1H,5H,6H,7H-pyrrolo[3,2-c]pyridin-4-one] | > 1000 nM | 100 to 1000 nM | 100 to 1000 nM | 100 to 1000 nM
COc1c(Cl)cccc1Nc1c(-c2ccnc(Nc3cnoc3C)n2)[nH]c2c1C(=O)NCC2 [compound 510, 3-[(3-chloro-2-methoxyphenyl)amino]-2-{2-[(5-methyl-1,2-oxazol-4-yl)amino]pyrimidin-4-yl}-1H,5H,6H,7H-pyrrolo[3,2-c]pyridin-4-one] | > 1000 nM | < 100 nM | < 100 nM | 100 to 1000 nM
COc1c(Cl)cccc1Nc1c(-c2ccnc(Nc3cc(C)n(C)n3)n2)[nH]c2c1C(=O)NCC2 [compound 513, 3-[(3-chloro-2-methoxyphenyl)amino]-2-{2-[(1,5-dimethylpyrazl-3-yl)amino]pyrimidin-4-yl}-1H,5H,6H,7H-pyrrolo[3,2-c]pyridin-4-one] | < 100 nM | < 100 nM | < 100 nM | < 100 nM
COc1c(Cl)cccc1Nc1c(-c2ccnc(Nc3cnn(C(C)C)c3)n2)[nH]c2c1C(=O)NCC2 [compound 516, 3-[(3-chloro-2-methoxyphenyl)amino]-2-{2-[(1-isopropylpyrazol-4-yl)amino]pyrimidin-4-yl}-1H,5H,6H,7H-pyrrolo[3,2-c]pyridin-4-one] | 100 to 1000 nM | < 100 nM | < 100 nM | < 100 nM
COc1c(Cl)cccc1Nc1c(-c2ccnc(Nc3cnn(C4CCOCC4)c3)n2)[nH]c2c1C(=O)NCC2 [compound 517, 3-[(3-chloro-2-methoxyphenyl)amino]-2-(2-{[1-(oxan-4-yl)pyrazol-4-yl]amino}pyrimidin-4-yl)-1H,5H,6H,7H-pyrrolo[3,2-c]pyridin-4-one] | 100 to 1000 nM | < 100 nM | < 100 nM | 100 to 1000 nM
